Legend:
TGase = target: T1, TGase (Homo sapiens, UniProt P21980); test: VEGF-induced TGase activation in HUVECs; format: cell-based
T1 construct: endogenous in cells; host or cells: HUVECs (isolated in house)
T1 sequence (P21980 1-687): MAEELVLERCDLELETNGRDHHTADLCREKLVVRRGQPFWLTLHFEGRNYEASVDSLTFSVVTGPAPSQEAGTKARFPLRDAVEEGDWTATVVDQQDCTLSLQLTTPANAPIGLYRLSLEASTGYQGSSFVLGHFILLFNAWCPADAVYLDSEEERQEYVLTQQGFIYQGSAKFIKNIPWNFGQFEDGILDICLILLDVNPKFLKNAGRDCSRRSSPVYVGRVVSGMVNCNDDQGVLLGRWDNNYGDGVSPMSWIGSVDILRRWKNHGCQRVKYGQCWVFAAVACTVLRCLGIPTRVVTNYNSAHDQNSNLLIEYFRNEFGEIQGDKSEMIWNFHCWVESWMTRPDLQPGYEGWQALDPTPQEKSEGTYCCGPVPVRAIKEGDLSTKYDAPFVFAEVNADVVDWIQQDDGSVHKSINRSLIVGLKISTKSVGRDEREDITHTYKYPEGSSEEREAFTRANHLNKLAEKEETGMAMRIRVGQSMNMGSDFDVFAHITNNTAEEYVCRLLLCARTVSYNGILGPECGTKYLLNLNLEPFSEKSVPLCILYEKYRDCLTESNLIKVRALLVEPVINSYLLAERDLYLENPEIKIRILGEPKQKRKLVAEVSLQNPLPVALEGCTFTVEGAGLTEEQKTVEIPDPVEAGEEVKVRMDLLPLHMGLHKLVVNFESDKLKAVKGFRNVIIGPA
Procedure: (§1) Both respectively were grown on 2% gelatin-coated plates in a M199 medium supplemented with 20% fetal bovine serum (FBS), 3 ng/ml basic fibroblastic growth factor, 5 units/ml heparin, 100 units/ml penicillin, and 100 μg/ml streptomycin. For experiments, cells were incubated for 6 hrs in a low-serum medium supplemented with 1% FBS and antibiotics.
In-situ Tgase transamidating activity was determined via confocal microscopic assay according to a previously known procedure. In brief, cells were incubated with 1 mM 5-(biotinamido)pentylamine (BAPA) for 1 hr at 37° C., fixed with 3.7% formaldehyde in PBS for 30 min, and permeabilized with 0.2% Triton X-100 in PBS for 30 min. After incubation with a blocking solution of 2% BSA in 20 mM Tris (pH 7.6), 138 mM NaCl, and 0.1% Tween 20 for 30 min, cells were treated with Cy3-conjugated streptavidin (1:200, v/v) in the blocking solution for 1 hr. Single-cell fluorescence intensities of stained cells were determined using confocal microscopy for 10 randomly selected cells per test. TGase activities were determined by comparing average fluorescence intensities of treated cells with those of control cells (expressed as multiples thereof).

HRECs [1] = test: Visualization of actin filaments (stress fiber formation) in HRECs; format: cell-based, human; details: for VEGF-induced stress fiber formation: summary statement, conditions not given; for VEGF-activated stress fiber formation: HRECs, 50 μM cystamine or 20 μM MDC 30 min, 10 ng/ml VEGF
Procedure: Actin filaments and VE-cadherin were visualized as previously described. For visualization of actin filaments, cells were treated with 10 ng/ml VEGF for 1 hr at 37° C., fixed with 3.7% formaldehyde, and permeabilized with 0.2% Triton X-100. […] For visualization of VE-cadherin, cells were preincubated with the TGase2 inhibitors for 30 min and treated with 10 ng/ml VEGF for 90 min at 37° C. Following fixation and permeabilization, cells were incubated overnight with a monoclonal anti-VE-cadherin antibody (1:200, Santa Cruz Biotechnology) at 4° C. Cells were then probed with an FITC-conjugated goat anti-mouse antibody (1:200, Sigma) and VE-cadherin was visualized using confocal microscopy. Adherens junctions are represented by histograms of VE-cadherin as indicated by dotted lines and were quantitatively analyzed using peak fluorescence intensities of the histograms at the single-cell level for 10 randomly selected cells per experiment.
(A-C) HRECs were preincubated with 50 μM cystamine (Cys) and 20 μM MDC for 30 min and treated with 10 ng/ml VEGF. Stress fibers and VE-cadherin were stained and visualized by confocal microscopy as described in Research Design and Methods (n=3) ((A) Representative images of stress fibers. Scale Bar, 30 μm. (B) Representative images of VE-cadherin. Scale Bar, 10 μm). Adherens junctions are represented by histograms of VE-cadherin as indicated by dotted lines. (C) Adherens junctions were quantitatively analyzed using the peak fluorescence intensities of the histograms at the single-cell level. The results are expressed as mean±SD from three independent trials. (D) In-vitro endothelial cell monolayer permeability assay. HRECs on inserts of Transwell® Permeable Supports were incubated with 50 μM cystamine and 20 μM MDC for 30 min and treated with 10 ng/mL VEGF for 90 min. The amount of FITC-dextran that diffused to the lower chamber was measured by a microplate spectrofluorometer (n=3) (**p<0.01).
HRECs were transfected with 100 nM human TGase2-specific siRNA (TGase2 siRNA) or 100 nM control (Ctrl) siRNA. Endothelial cells were treated with 10 ng/ml VEGF and subjected to the confocal microscopic visualization of stress fibers (A) and VE-cadherin (B), as described in Research Design and Methods (n=3). (A) TGase2 siRNA inhibition of VEGF-induced formation of stress fibers. Scale bar, 30 μm. (B) Representative images of VE-cadherin and adherens junctions represented by VE-cadherin histograms. Scale bar, 10 μm. (C) Adherens junctions were quantitatively analyzed using peak fluorescence intensities of the histograms at the single-cell level. Results are expressed as mean±SD from three independent experiments (***p<0.001).

TGase2 = target: T2, TGase2 (Homo sapiens, UniProt P21980); details: protein chip-based, dose-dependent
T2 sequence (P21980 1-687): T1 sequence (P21980 1-687)

HUVECs = test: VEGF-induced ROS generation in HUVECs; format: cell-based, human
Procedure: as §1
Intracellular ROS generation was determined using 2′,7′-dichlorodihydrofluorescein diacetate (H2DCFDA, Molecular Probes, Eugene, Oreg.) staining as previously described. Cells were pretreated with inhibitors for 30 min and co-incubated with 10 ng/ml of VEGF and 10 μM H2DCFDA in low-serum media (phenol red-free) for 10 min. Labeled cells were immediately analyzed using confocal microscopy (Fluoview-300, Olympus). Single-cell fluorescence intensities were determined for 10 randomly selected cells per test. Intracellular ROS levels were determined by comparing average fluorescence intensities of treated cells with those of control cells (expressed as multiples thereof).

HRECs [2] = test: In-vitro endothelial cell monolayer permeability assay (FITC-dextran, Transwell); format: cell-based, human; details: 50 μM cystamine, 20 μM MDC or 100 nM dasatinib 30 min, 10 ng/ml VEGF 90 min, p<0.01
Procedure: In-vitro permeability assay was performed as previously described. HRECs were grown on gelatin-coated inserts (0.4 μm polycarbonate membrane) of Transwell® Permeable Supports (Costar, Corning, N.Y., USA) up to confluence. Approximately 1.0×10^5 cells in 0.5 ml of culture medium were seeded on the upper side of the membrane while 1 ml of culture medium was added to the lower compartment. […] The amount of FITC-dextran that diffused through the endothelial monolayer into the lower chamber was measured using a microplate spectrofluorometer (Molecular Devices, Sunnyvale, Calif., USA).
(A-C) HRECs were preincubated with 50 μM cystamine (Cys) and 20 μM MDC for 30 min and treated with 10 ng/ml VEGF. […] (C) Adherens junctions were quantitatively analyzed using the peak fluorescence intensities of the histograms at the single-cell level. The results are expressed as mean±SD from three independent trials. […] The amount of FITC-dextran that diffused to the lower chamber was measured by a microplate spectrofluorometer (n=3) (**p<0.01).
(A) β-catenin was visualized by confocal microscopy. […] (B) cSrc phosphorylation at Tyr^416 was analyzed by Western blot. […] Results are expressed as mean±SD from three independent experiments (**p<0.01, ***p<0.001).

c-Src = c-Src phosphorylation (Tyr416) by Western blot in HRECs; format: cell-based, human; details: 50 μM cystamine or 100 nM dasatinib 30 min, 10 ng/ml VEGF 15 min
Procedure: Cells were incubated with an ice-cold lysis buffer containing 50 mM Tris-HCl (pH 7.5), 1% Triton X-100, 150 mM NaCl, 1 mM EDTA, 0.1 mM phenylmethylsulfonyl fluoride (PMSF), 10 μg/ml aprotinin, and 10 μg/ml leupeptin for 30 min. Cell lysates were separated by SDS-PAGE and transferred to polyvinylidene fluoride membranes. The membranes were blocked with 5% skim milk in TBS with 0.1% Tween for 1 hr at room temperature (RT). […] Protein bands were visualized using a chemiluminescent substrate (Pierce, Rockford, Ill.).

β-catenin = test: Visualization of β-catenin in HRECs; format: cell-based, human; details: 50 μM cystamine or 100 nM dasatinib 30 min, 10 ng/ml VEGF 90 min
Procedure: For visualization of β-catenin, cells were preincubated with inhibitors for 30 min and treated with 10 ng/ml VEGF for 90 min, fixed with 3.7% formaldehyde, and permeabilized with 0.2% Triton X-100. Cells were incubated overnight with a monoclonal anti-3-catenin antibody (1:200, Santa Cruz Biotechnology) at 4° C. Cells were then probed with an FITC-conjugated goat anti-mouse antibody (1:200, Sigma) and visualized using confocal microscopy. Images for making galleries were cropped to a smaller size using Microsoft PowerPoint 2010 software.
(A) β-catenin was visualized by confocal microscopy. Scale bar, 30 μm. (B) cSrc phosphorylation at Tyr^416 was analyzed by Western blot. (C) In-vitro endothelial cell monolayer permeability assay. Results are expressed as mean±SD from three independent experiments (**p<0.01, ***p<0.001).

Structure (SMILES)	VEGF-enhanced TGase activation (TGase)	VEGF-induced stress fiber formation (HRECs [1])	TGase2 activity (TGase2)	VEGF-enhanced ROS generation (HUVECs)	VEGF-increased in-vitro endothelial permeability (HRECs [2])	VEGF-induced c-Src phosphorylation (Tyr416) (c-Src)	VEGF-induced β-catenin breakdown (β-catenin)	VEGF-activated stress fiber formation (HRECs [1])
NCCc1ccc(O)c(O)c1 [dopamine]	inhibited	prevented	inhibited	inhibited	–	–	–	–
NCCSSCCN [cystamine]	–	–	–	–	inhibited	prevented	inhibited	prevented
CN(C)c1cccc2c(S(=O)(=O)NCCCCCN)cccc12 [MDC, monodansylcadaverine]	–	–	–	–	inhibited	–	–	prevented
NCCS [cysteamine]	inhibited	prevented	inhibited	inhibited	–	–	–	–

From patent publication US10155948B2, “Pharmaceutical composition for preventing or treating diabetic complications and screening method for preventive or therapeutic agent for diabetic complications” (KANGWON NATIONAL UNIVERSITY UNIVERSITY-INDUSTRY COOPERATION …, priority 2016, dated 2018)
